This is an account of results in patent US6683077B2, “2-Amino-benzoxazinones for the treatment of viral infections” (G.D. Searle & Co., priority 1996, dated 2004).

The EC50 is the concentration that produces a half-maximal response.

Assay [1] relates to HCMV engineered virus RC256. The assay can be described thus: microbe, parasite or virus in culture. It is filed as cell-based, human cytomegalovirus. The conditions noted are these: Human betaherpesvirus 5, Fibroblast, read-out: Antiviral Activity RC256, first value (EC50).
The target of assay [2] is T1, Human leukocyte elastase (HLE) (Homo sapiens, UniProt P08246).
T1 construct: gift of R. Senior, Washington University
T1 sequence (P08246 30-267): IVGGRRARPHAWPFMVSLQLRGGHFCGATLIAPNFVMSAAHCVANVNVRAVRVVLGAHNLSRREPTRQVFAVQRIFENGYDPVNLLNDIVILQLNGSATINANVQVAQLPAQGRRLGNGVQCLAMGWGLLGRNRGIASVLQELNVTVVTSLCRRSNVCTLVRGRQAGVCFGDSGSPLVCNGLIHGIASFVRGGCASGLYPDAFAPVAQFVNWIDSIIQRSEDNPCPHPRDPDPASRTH
Description: Human leukocyte elastase assay. The format is biochemical. As for the experimental part: Human leukocyte elastase (HLE) (gift of R. Senior, Washington University) was dissolved in saline at 1 mg/ml and further diluted 1/20 in assay buffer (0.2 M Tris, pH 8.0) before use. 10 μl of test compound in DMSO (or DMSO alone), 100 μl of assay buffer and 50 μl of enzyme were added to 96 well plates, mixed and pre-incubated for 30 minutes at ambient temperature. Reaction was initiated by addition of 40 μl of 2.5 mM methoxysuccinyl-Ala-Ala-Pro-Val-p-nitroanilide (Sigma; 25 mM in DMSO diluted 1/10 in assay buffer before use). The increase in absorbance at 405 nm was monitored for 10 minutes with a Biotek EL340 plate reader.

Where [3] appears, read: @ 10 (concentration unit not given).
Where [4] appears, read: @ 1 (concentration unit not given).
The mark [5] stands for this setting: @ 100 (concentration unit not given).

With `COc1ccc(C[C@H](Nc2nc3ccc(CNC(=O)OC(C)(C)C)c(C)c3c(=O)o2)C(=O)N(C)c2ccccc2)cc1` [Example 7t, 1,1-Dimethylethyl[[2-[[1S-[(4-methoxyphenyl)methyl]-2-(methylphenylamino)-2-oxoethyl]amino]-5-methyl-4-oxo-4H-3,1-benzoxazin-6-yl]methyl]carbamate], the EC50 in assay [1] worked out at 18 µM. For the same compound, in assay [2] (setting [3]), the “HLE, % @ concentration” value is listed as 20% @ 10.
For the compound `Cc1c(CNC(=O)OC(C)(C)C)ccc2nc(N[C@@H](Cc3ccccc3)C(=O)N(C)CCc3ccccc3)oc(=O)c12` [Example 7v, 1,1-Dimethylethyl[[5-methyl-2-[[2-[methyl(2-phenylethyl)amino]-2-oxo-1S-(phenylmethyl)ethyl]amino]-4-oxo-4H-3,1-benzoxazin-6-yl]methyl]carbamate], the EC50 in assay [1] is 14 µM. Moreover, in assay [2] (setting [3]), the “HLE, % @ concentration” value is 53% @ 10.
As for `Cc1c(CNC(=O)Nc2ccccc2)ccc2nc(N[C@@H](Cc3ccccc3)C(=O)N(C)Cc3ccccc3)oc(=O)c12` [Example 12f, N-Methyl-αS-[[5-methyl-4-oxo-6-[[[(phenylamino)carbonyl]amino]methyl]-4H-3,1-benzoxazin-2-yl]amino]-N-(phenylmethyl)benzenepropanamide], the EC50 in assay [1] amounted to 14 µM. Besides, in assay [2] (setting [4]), the “HLE, % @ concentration” value was found to be 55% @ 1.
Turning to `Cc1c(N(C)C)ccc2nc(N[C@@H](Cc3ccccc3)C(=O)N(C)Cc3ccccc3)oc(=O)c12` [Example 16, αS-[[6-(Dimethylamino)-5-methyl-4-oxo-4H-3,1-benzoxazin-2-yl]amino]-N-methyl-N-(phenylmethyl) benzenepropanamide], the EC50 in assay [1] was found to be 17 µM. In assay [2] (setting [3]), the “HLE, % @ concentration” value amounted to 59% @ 10.
For the compound `COC(=O)[C@H](Cc1ccc(OC)cc1)Nc1nc2ccc(NC(=O)OC(C)(C)C)c(C)c2c(=O)o1` [Example 6c, N-[6-[[(1,1-Dimethylethoxy)carbonyl]amino]-5-methyl-4-oxo-4H-3,1-benzoxazin-2-yl]-O-methyl-L-tyrosine, methyl ester], the EC50 in assay [1] was 59 µM. Besides, the “HLE, % @ concentration” value in assay [2] (setting [5]) amounted to 29% @ 100.
On to `CCOC(=O)NCc1ccc2nc(N[C@@H](Cc3ccccc3)C(=O)N(C)Cc3ccccc3)oc(=O)c2c1C` [Example 9k, Ethyl[[5-methyl-2-[[2-[methyl(phenylmethyl)amino]-2-oxo-1S-(phenylmethyl)ethyl]amino]-4-oxo-4H-3,1-benzoxazin-6-yl]methyl]carbamate], for which the EC50 in assay [1] turned out to be 11 µM. Also, the “HLE, % @ concentration” value in assay [2] (setting [3]) is on record as 29% @ 10.
As to `Cc1c(NC(=O)c2ccco2)ccc2nc(N[C@@H](C)c3ccccc3)oc(=O)c12` [Example 11k, 6-[[(2-Furanyl)carbonyl]amino]-5-methyl-2-[[(1S)-phenylethyl]amino]-4H-3,1-benzoxazin-4-one], the EC50 in assay [1] worked out at 65 µM. Moreover, the “HLE, % @ concentration” value in assay [2] (setting [5]) is recorded as 63% @ 100.
With `COc1ccc(C[C@H](Nc2nc3ccc(N(C)C)c(C)c3c(=O)o2)C(=O)N(C)c2ccc(Cl)cc2)cc1` [Example 16c, N-(4-Chlorophenyl)-αS-[[6-(dimethylamino)-5-methyl-4-oxo-4H-3,1-benzoxazin-2-yl]amino]-4-methoxy-N-methylbenzenepropanamide], the EC50 in assay [1] was found to be 18 µM. Moreover, the “HLE, % @ concentration” value in assay [2] (setting [3]) stood at 18% @ 10.
Consider `Cc1c(CNC(=O)OC2CCCC2)ccc2nc(N[C@@H](Cc3ccccc3)C(=O)N(C)Cc3ccccc3)oc(=O)c12` [Example 18f, Cyclopentyl[[5-methyl-2-[[2-[methyl(phenylmethyl)amino]-2-oxo-1S-(phenylmethyl)ethyl]amino]-4-oxo-4H-3,1-benzoxazin-6-yl]methyl]carbamate], for which the “HLE, % @ concentration” value in assay [2] (setting [4]) is recorded as 59% @ 1.
For the compound `COc1ccc(C[C@H](Nc2nc3ccc(CNC(=O)CCc4ccccc4)c(C)c3c(=O)o2)C(=O)N(C)Cc2ccccc2)cc1` [Example 9u, 4-Methoxy-N-methyl-αS-[[5-methyl-6-[[(1-oxo-3-phenylpropyl)amino]methyl]-4-oxo-4H-3,1-benzoxazin-2-yl]amino]-N-(phenylmethyl)benzenepropanamide], in assay [1], the EC50 was 18 µM.
